Results published in ChEMBL document CHEMBL1152887, “Identification of novel and potent 2-amino benzamide derivatives as allosteric glucokinase activators” (Bioorg Med Chem Lett, 2009).
pEC50: −log10 of the molar value.

What was measured:
Hexokinase-4 [1] = target: T1, Hexokinase-4 (Homo sapiens, UniProt P35557)
T1 sequence (P35557 whole entry): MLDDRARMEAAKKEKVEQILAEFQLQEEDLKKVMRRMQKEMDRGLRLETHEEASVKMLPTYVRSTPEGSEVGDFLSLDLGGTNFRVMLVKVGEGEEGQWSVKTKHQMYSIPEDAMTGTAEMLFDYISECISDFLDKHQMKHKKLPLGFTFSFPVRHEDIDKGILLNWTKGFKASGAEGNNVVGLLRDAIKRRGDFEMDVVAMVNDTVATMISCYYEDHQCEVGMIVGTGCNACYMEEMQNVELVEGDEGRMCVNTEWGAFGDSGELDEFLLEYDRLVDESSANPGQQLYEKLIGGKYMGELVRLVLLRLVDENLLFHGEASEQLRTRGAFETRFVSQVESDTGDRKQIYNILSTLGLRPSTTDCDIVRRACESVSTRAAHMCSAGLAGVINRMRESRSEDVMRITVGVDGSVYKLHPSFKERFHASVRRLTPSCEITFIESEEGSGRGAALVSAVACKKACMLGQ

Hexokinase-4 [2] = target: T1, Hexokinase-4; remark: listed apart in the source
Rattus norvegicus = assay: Glucose lowering effect in po dosed Wistar rat assessed as decrease in plasma glucose level administered 30 mins before glucose challenge by OGTT; assay type: functional, organism-based
[3] = Volume of distribution in Wistar rat at 1 mg/kg, iv and 3 mg/kg, po; assay type: ADME, organism-based; conditions: in vivo
[4] = Clearance in Wistar rat at 1 mg/kg, iv and 3 mg/kg, po; assay type: ADME, organism-based; conditions: in vivo
[5] = Half life in Wistar rat at 1 mg/kg, iv; assay type: ADME, organism-based; set-up: dose 1 mg/kg, route intravenous; conditions: in vivo
[6] = Cmax in Wistar rat at 1 mg/kg, iv and 3 mg/kg, po; assay type: ADME, organism-based; conditions: in vivo
[7] = Tmax in Wistar rat at 1 mg/kg, iv and 3 mg/kg, po; assay type: ADME, organism-based; conditions: in vivo
[8] = Oral bioavailability in Wistar rat at 3 mg/kg; assay type: ADME, organism-based; conditions: in vivo

SMILES | pEC50 (Hexokinase-4 [1]) | pEC50 (Hexokinase-4 [2]) | other results
Cc1csc(NC(=O)c2ccc(Cl)cc2N)n1 | < 4.52 | < 4.52 | –
Cc1csc(NC(=O)c2cc(Sc3ccccn3)ccc2N)n1 | 5.92 | 6.66 | –
Cc1nsc(NC(=O)c2cc(Sc3nncn3C)ccc2N)n1 | 6.19 | 6.74 | –
Cc1csc(NC(=O)c2cc(Sc3ccccc3)ccc2N)n1 | 6.04 | 6.70 | –
Cc1cnc(NC(=O)c2cc(Sc3nncn3C)ccc2N)s1 | 6.48 | 6.96 | –
Cc1csc(NC(=O)c2cc(Sc3nncn3C)ccc2N)n1 | – | – | Activity (Rattus norvegicus): Dose-dependent effect; Vd [3]: 0.4 L/kg; clearance [4]: 0.858 L/h/kg; half-life [5]: 54 min; Cmax [6]: 8.5 µM; Tmax [7]: 30 min; bioavailability [8]: 100%
Cn1cnnc1Sc1ccc(N)c(C(=O)Nc2ncns2)c1 | 6.31 | 6.92 | –
Cc1csc(NC(=O)c2cccc(Cl)c2)n1 | 4.77 | 5.20 | –
Nc1ccc(Cl)cc1C(=O)Nc1nccs1 | 4.96 | 5.59 | –
Cn1cnnc1Sc1ccc(N)c(C(=O)Nc2nccs2)c1 | 6.46 | 6.89 | –
Cn1cnnc1Sc1ccc(N)c(C(=O)Nc2ccccn2)c1 | 5.92 | 6.64 | –
Cc1csc(NC(=O)c2cc(Sc3ncc[nH]3)ccc2N)n1 | 5.80 | 6.42 | –
CCSc1ccc(N)c(C(=O)Nc2nc(C)cs2)c1 | 6.11 | 6.74 | –
CCOc1ccc(N)c(C(=O)Nc2nc(C)cs2)c1 | 5.17 | 5.77 | –
Cc1csc(NC(=O)c2cc(Sc3nccn3C)ccc2N)n1 | 6.64 | 7.00 | –

Further lines, with some results ahead:

pEC50 (Hexokinase-4 [1]) | pEC50 (Hexokinase-4 [2]) | SMILES | other results
5.62 | 6.27 | Cc1csc(NC(=O)c2cc(Sc3nnc[nH]3)ccc2N)n1 | –
6.15 | 6.89 | Cc1csc(NC(=O)c2cc(Oc3ccccc3)ccc2N)n1 | –
5.19 | 5.85 | Cc1csc(NC(=O)c2cc(Cl)ccc2N)n1 | –
6.22 | 6.85 | Cc1csc(NC(=O)c2cc(Oc3cccc(F)c3)ccc2N)n1 | –
5.80 | 6.38 | Cn1cnnc1Sc1ccc(N)c(C(=O)Nc2nc(CO)cs2)c1 | –
< 5.00 | < 5.00 | Cn1cnnc1Sc1ccc(N)c(C(=O)Nc2ccccc2)c1 | –
6.29 | 6.89 | Cc1csc(NC(=O)c2cc(Oc3ccccc3S(C)(=O)=O)ccc2N)n1 | –
5.96 | 6.38 | CCOC(=O)c1csc(NC(=O)c2cc(Sc3nncn3C)ccc2N)n1 | –
< 4.52 | < 4.52 | Nc1ccccc1C(=O)Nc1nccs1 | –
5.14 | 5.82 | Cc1csc(NC(=O)c2cccc(Sc3nncn3C)c2)n1 | –
6.59 | 7.00 | Cc1csc(NC(=O)c2cc(Oc3ccccc3F)ccc2N)n1 | –
5.57 | 6.03 | Cn1cnnc1Sc1ccc(N)c(C(=O)Nc2nc(C(F)(F)F)cs2)c1 | –
< 5.00 | < 5.00 | Cn1cnnc1Sc1ccc(N)c(C(=O)Nc2ccncc2)c1 | –
< 5.00 | < 5.00 | Cc1csc(NC(=O)c2cc(Sc3nncn3C)ccc2[N+](=O)[O-])n1 | –
5.77 | 6.40 | Cc1csc(NC(=O)c2cc(Oc3ccc(F)cc3)ccc2N)n1 | –
6.39 | 6.92 | COc1ccccc1Oc1ccc(N)c(C(=O)Nc2nc(C)cs2)c1 | –
< 5.00 | < 5.00 | Cn1cnnc1Sc1ccc(N)c(C(=O)Nc2cccnc2)c1 | –
